Patent publication US6911318B2, “Bacterial transglycosylases: assays for monitoring the activity using Lipid II substrate analogs and methods for discovering new antibiotics” (The Trustees of Princeton University, priority 1999, dated 2005)

How the values were obtained:
[1] = NMR and CD titration of ramoplanin with compound 2; type: binding; conditions: NMR
Text: The ability of ramoplanin to interact with 2 is investigated by NMR (FIG. 10). Unexpectedly, titration of ramoplanin with compound 2 caused the ramoplanin signals to disappear. Resonances for free 2 began to appear at a 1:1 ramoplanin:2 ratio. The disappearance of the ramoplanin resonances connotes a change in relaxation properties consistent with the formation of a high molecular weight species. A striking increase in the viscosity of the ramoplanin samples is evident upon the addition of compound 2. In addition, electron micrographs of the ramoplanin complexes show long fibrils (not shown). Thus, ramoplanin undergoes a ligand-induced polymerization process in the presence of 2. Ligand-induced polymerization of ramoplanin complexes implies a conformational change in ramoplanin. Therefore, one would expect a significant change in the far UV CD spectrum of ramoplanin upon adding 2. In fact, the CD spectrum for ramoplanin changes dramatically upon titration with 2 (FIG. 11). The appearance of a minimum at ˜210 nm is consistent with a model in which assembly into fibrils is mediated by hydrogen bonds between amides in the ramoplanin complexes, and is all likelihood related to the unusual pattern of D and L amino acids in the molecule. […]

[2] = tested on: transglycosylases; assay: modified membrane assay of radiolabeled Lipid II polymerization; type: biochemical; conditions: increasing concentrations of ramoplanin; FIG. 9
Text: Ramoplanin (FIG. 8) is a cyclic glycolipodepsipeptide antibiotic that kills gram positive bacteria by inhibiting cell wall biosynthesis. Ramoplanin blocks the conversion of Lipid I to Lipid II, a reaction that is catalyzed by the intracellular GlcNAc transferase. MurG. It is proposed that ramoplanin inhibits MurG by complexing Lipid I, which prevents it from being utilized as a substrate. Unexpectedly ramoplanin is shown by this inventor to inhibit the polymerization of Lipid II; therefore another mechanism is discovered by which ramoplanin can kill bacterial cells through inhibition of the transglycosylation step of peptidoglycan synthesis. Using a synthetic analogue of Lipid II, the evidence is presented that enzyme inhibition by ramoplanin involves substrate binding. Unexpectedly, the ramoplanin complexes are found to self-associate to form observable fibrils. The mechanism of action of ramoplanin has been investigated in the past in permeabilized bacterial cells and membrane preparations by following the incorporation of radiolabel from a precursor into various intermediates along the pathway to peptidoglycan. […] The effect of ramoplanin on Lipid II polymerization is evaluated by monitoring the amount of radioactive peptidoglycan formed in the presence of increasing concentrations of ramoplanin. […]

[3] = tested on: transglycosylase present in bacterial membranes; assay: in vitro polymerization of biotinylated-[14C]-Lipid II by bacterial membrane protein, ascending chromatography; type: biochemical; conditions: 0.06 μg/ml Moenomycin, FIG. 7
Experimental: FIG. 7 discloses in vitro polymerization of biotinylated-[^14C]-Lipid II accomplished by incubation with bacterial membrane protein, and product is detected by ascending chromatography in isobutyric acid:1M NH4OH (5:3).
In FIG. 7, biotinylated Lipid II serves as a substrate for transglycosylase present in bacterial membranes. Control: incubation of bacterial membranes with biotinylated Lipid II, which is also labeled with [^14C] […] It is thus clear that any other bacterial cell wall inhibitor can be equally screened.

With Ramoplanin the “binding to Lipid II analogue” value [1] was “binds to a synthetic analogue of Lipid II” and the “effect on Lipid II polymerization (radioactive peptidoglycan formed)” value [2] was “blocks the polymerization of Lipid II”.

In the case of moenomycin, the “formation of peptidoglycan from biotinylated [14C]-Lipid II” value [3] is reported as “inhibits formation of peptidoglycan”.
